Data as given in the NIST ThermoML archive (doi:10.1016/j.jct.2012.09.009).

Conditions: 101.33 kPa, Liquid; for speed of sound: Sing-around technique in a fixed-path interferometer; for mass density: vibrating tube

CC(C)CC(C)(C)C [2,2,4-trimethylpentane]
Conditions	mass density [kg/m3]	speed of sound [m/s]
278.15 K	704.1	1168.4
283.15 K	700.05	1146.8
288.15 K	695.98	1125.4
293.15 K	691.89	1104.3
298.15 K	687.77	1083.1
303.15 K	683.64	1062.4
308.15 K	679.48	1041.6
313.15 K	675.28	1020.9
318.15 K	671.07	1000.5
323.15 K	666.81	980
328.15 K	662.52	959.7
333.15 K	658.19	939.7
338.15 K	653.81	919.7
343.15 K	649.4	900

Cc1ccccc1 [toluene]
Conditions	speed of sound [m/s]
278.15 K	1394.1
283.15 K	1371.5
288.15 K	1349.1
293.15 K	1326.9
298.15 K	1305.1
303.15 K	1283.6
308.15 K	1262.2
313.15 K	1240.9
318.15 K	1219.9
323.15 K	1198.9
328.15 K	1178.2
333.15 K	1157.7
338.15 K	1137.2
343.15 K	1117
